Laboratory results from patent US12479895B2, “C-terminal CDNF and MANF fragments, pharmaceutical compositions comprising same and uses thereof” (MyNeuroCure Oy, priority 2018, dated 2025).

Experiments:
dopamine neurons = assay: Survival of TH-positive dopamine neurons in dissociated midbrain floor cultures; type: cell-based, mouse; conditions: for survived neurons as % compared to neurons grown in the presence of GDNF: Table 3A (FIG. 15), 5 days; for Fold change of survived neurons compared to neurons grown without growth factors: data of Table 3 divided by values of no factor
Procedure, shortened: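 Dissociated E13.5 NMRI mouse midbrain floor neurons grown five days in DMEM/F12 with N2, with polypeptides at a range of concentrations, GDNF (100 ng/ml), or nothing. TH-immunopositive neurons were counted by imaging. Values are a percentage of GDNF-maintained TH-positive neurons, as mean ± SEM from at least three independent cultures.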

ER stressed SCG neurons = assay: Survival of tunicamycin-treated (ER stressed) SCG sympathetic neurons after microinjection; type: cell-based, mice; conditions: for survived neurons as % compared to neurons grown in the presence of NGF: Table 1A (FIG. 14), microinjected into cytoplasm, tunicamycin 2 μM, CDNF (400); for Fold change of survived neurons compared to neurons injected with PBS: data of Table 1 divided by values of PBS
Procedure, shortened: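 Newborn mouse SCG neurons grown 5-6 days with 30 ng/ml NGF, then microinjected with CDNF (FL or C-terminal) plasmids (10 ng/ul, EGFP reporter) or proteins (200 ng/ul, Dextran Texas Red). Tunicamycin (2 μM) added next day. Fluorescent survivors counted blindly after 3 days as % of initial; compared with vector or PBS (ANOVA/Dunnett).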

| Sequence | survived neurons as % compared to neurons grown in the presence of GDNF (dopamine neurons; AVG, 1 ng/ml) [% GDNF] | survived neurons as % compared to neurons grown in the presence of GDNF (dopamine neurons; AVG, 10 ng/ml) [% GDNF] | survived neurons as % compared to neurons grown in the presence of GDNF (dopamine neurons; AVG, 100 ng/ml) [% GDNF] | survived neurons as % compared to neurons grown in the presence of GDNF (dopamine neurons; AVG, 1000 ng/ml) [% GDNF] | survived neurons as % compared to neurons grown in the presence of GDNF (dopamine neurons; exp1, 1 ng/ml) [% GDNF] | survived neurons as % compared to neurons grown in the presence of GDNF (dopamine neurons; exp1, 10 ng/ml) [% GDNF] | survived neurons as % compared to neurons grown in the presence of GDNF (dopamine neurons; exp1, 100 ng/ml) [% GDNF] | survived neurons as % compared to neurons grown in the presence of GDNF (dopamine neurons; exp1, 1000 ng/ml) [% GDNF] | survived neurons as % compared to neurons grown in the presence of GDNF (dopamine neurons; exp2, 1 ng/ml) [% GDNF] | survived neurons as % compared to neurons grown in the presence of GDNF (dopamine neurons; exp2, 10 ng/ml) [% GDNF] | survived neurons as % compared to neurons grown in the presence of GDNF (dopamine neurons; exp2, 100 ng/ml) [% GDNF] | survived neurons as % compared to neurons grown in the presence of GDNF (dopamine neurons; exp2, 1000 ng/ml) [% GDNF] | survived neurons as % compared to neurons grown in the presence of GDNF (dopamine neurons; exp3, 1 ng/ml) [% GDNF] | survived neurons as % compared to neurons grown in the presence of GDNF (dopamine neurons; exp3, 10 ng/ml) [% GDNF] | survived neurons as % compared to neurons grown in the presence of GDNF (dopamine neurons; exp3, 100 ng/ml) [% GDNF] | survived neurons as % compared to neurons grown in the presence of GDNF (dopamine neurons; exp3, 1000 ng/ml) [% GDNF] | Fold change of survived neurons compared to neurons grown without growth factors (dopamine neurons; Table 4, AVG, 1 ng/ml) [fold] | Fold change of survived neurons compared to neurons grown without growth factors (dopamine neurons; Table 4, AVG, 10 ng/ml) [fold] | Fold change of survived neurons compared to neurons grown without growth factors (dopamine neurons; Table 4, AVG, 100 ng/ml) [fold] | Fold change of survived neurons compared to neurons grown without growth factors (dopamine neurons; Table 4, AVG, 1000 ng/ml) [fold] | further results |
| --- | --- | --- | --- | --- | --- | --- | --- | --- | --- | --- | --- | --- | --- | --- | --- | --- | --- | --- | --- | --- | --- |
| VDLRKMRVAELKQILHSWGEECRACAEKTDYVNLIQELAPKYA (listed as Homo sapiens) [pep6] | 65.97 | 75.95 | 73.52 | 70.75 | 62.89 | 66.29 | 71.71 | 63.01 | 77.34 | 83.75 | 71.86 | 67.06 | 57.68 | 77.81 | 76.97 | 82.17 | 1.07 | 1.23 | 1.19 | 1.15 | Fold change of survived neurons compared to neurons grown without growth factors (dopamine neurons; Table 4, exp1, 1 ng/ml): 1.10 fold; Fold change of survived neurons compared to neurons grown without growth factors (dopamine neurons; Table 4, exp1, 10 ng/ml): 1.16 fold; Fold change of survived neurons compared to neurons grown without growth factors (dopamine neurons; Table 4, exp1, 100 ng/ml): 1.25 fold; Fold change of survived neurons compared to neurons grown without growth factors (dopamine neurons; Table 4, exp1, 1000 ng/ml): 1.10 fold; Fold change of survived neurons compared to neurons grown without growth factors (dopamine neurons; Table 4, exp2, 1 ng/ml): 1.23 fold; Fold change of survived neurons compared to neurons grown without growth factors (dopamine neurons; Table 4, exp2, 10 ng/ml): 1.33 fold; Fold change of survived neurons compared to neurons grown without growth factors (dopamine neurons; Table 4, exp2, 100 ng/ml): 1.14 fold; Fold change of survived neurons compared to neurons grown without growth factors (dopamine neurons; Table 4, exp2, 1000 ng/ml): 1.06 fold; Fold change of survived neurons compared to neurons grown without growth factors (dopamine neurons; Table 4, exp3, 1 ng/ml): 0.89 fold; Fold change of survived neurons compared to neurons grown without growth factors (dopamine neurons; Table 4, exp3, 10 ng/ml): 1.20 fold; Fold change of survived neurons compared to neurons grown without growth factors (dopamine neurons; Table 4, exp3, 100 ng/ml): 1.19 fold; Fold change of survived neurons compared to neurons grown without growth factors (dopamine neurons; Table 4, exp3, 1000 ng/ml): 1.27 fold; survived neurons as % compared to neurons grown in the presence of NGF (ER stressed SCG neurons; AVG of exp1-2): 78.47 % NGF; survived neurons as % compared to neurons grown in the presence of NGF (ER stressed SCG neurons; exp1, counted after 3 days): 81.94 % NGF; survived neurons as % compared to neurons grown in the presence of NGF (ER stressed SCG neurons; exp2, counted after 3 days): 75.00 % NGF; Fold change of survived neurons compared to neurons injected with PBS (ER stressed SCG neurons; Table 2, AVG): 2.14 Fold to PBS; Fold change of survived neurons compared to neurons injected with PBS (ER stressed SCG neurons; Table 2, exp1): 2.39 Fold to PBS; Fold change of survived neurons compared to neurons injected with PBS (ER stressed SCG neurons; Table 2, exp2): 1.89 Fold to PBS |
| TLDLASVDLRKMRVAELKQILHSWGEECRACAEKTDYVNLIQELAPKYA (listed as Homo sapiens) [pep4] | 69.14 | 70.54 | 70.14 | 76.27 | 61.71 | 64.44 | 69.02 | 68.35 | 79.99 | 81.47 | 73.24 | 83.39 | 65.71 | 65.71 | 68.14 | 77.07 | 1.12 | 1.14 | 1.14 | 1.24 | Fold change of survived neurons compared to neurons grown without growth factors (dopamine neurons; Table 4, exp1, 1 ng/ml): 1.08 fold; Fold change of survived neurons compared to neurons grown without growth factors (dopamine neurons; Table 4, exp1, 10 ng/ml): 1.13 fold; Fold change of survived neurons compared to neurons grown without growth factors (dopamine neurons; Table 4, exp1, 100 ng/ml): 1.21 fold; Fold change of survived neurons compared to neurons grown without growth factors (dopamine neurons; Table 4, exp1, 1000 ng/ml): 1.20 fold; Fold change of survived neurons compared to neurons grown without growth factors (dopamine neurons; Table 4, exp2, 1 ng/ml): 1.27 fold; Fold change of survived neurons compared to neurons grown without growth factors (dopamine neurons; Table 4, exp2, 10 ng/ml): 1.29 fold; Fold change of survived neurons compared to neurons grown without growth factors (dopamine neurons; Table 4, exp2, 100 ng/ml): 1.16 fold; Fold change of survived neurons compared to neurons grown without growth factors (dopamine neurons; Table 4, exp2, 1000 ng/ml): 1.32 fold; Fold change of survived neurons compared to neurons grown without growth factors (dopamine neurons; Table 4, exp3, 1 ng/ml): 1.01 fold; Fold change of survived neurons compared to neurons grown without growth factors (dopamine neurons; Table 4, exp3, 10 ng/ml): 1.01 fold; Fold change of survived neurons compared to neurons grown without growth factors (dopamine neurons; Table 4, exp3, 100 ng/ml): 1.05 fold; Fold change of survived neurons compared to neurons grown without growth factors (dopamine neurons; Table 4, exp3, 1000 ng/ml): 1.19 fold; survived neurons as % compared to neurons grown in the presence of NGF (ER stressed SCG neurons; AVG of exp1-2): 79.15 % NGF; survived neurons as % compared to neurons grown in the presence of NGF (ER stressed SCG neurons; exp1, counted after 3 days): 81.25 % NGF; survived neurons as % compared to neurons grown in the presence of NGF (ER stressed SCG neurons; exp2, counted after 3 days): 77.05 % NGF; Fold change of survived neurons compared to neurons injected with PBS (ER stressed SCG neurons; Table 2, AVG): 2.16 Fold to PBS; Fold change of survived neurons compared to neurons injected with PBS (ER stressed SCG neurons; Table 2, exp1): 2.37 Fold to PBS; Fold change of survived neurons compared to neurons injected with PBS (ER stressed SCG neurons; Table 2, exp2): 1.94 Fold to PBS |
| VDLRKMRVAELKQILHSWGEECRACAEKTDYVNLIQELAPKYAATHPKTEL (listed as Homo sapiens) [pep5] | 64.92 | 76.19 | 73.84 | 65.13 | 65.24 | 61.71 | 59.82 | 59.11 | 59.23 | 82.61 | 75.53 | 58.84 | 70.31 | 84.24 | 86.17 | 77.44 | 1.06 | 1.23 | 1.19 | 1.05 | Fold change of survived neurons compared to neurons grown without growth factors (dopamine neurons; Table 4, exp1, 1 ng/ml): 1.14 fold; Fold change of survived neurons compared to neurons grown without growth factors (dopamine neurons; Table 4, exp1, 10 ng/ml): 1.08 fold; Fold change of survived neurons compared to neurons grown without growth factors (dopamine neurons; Table 4, exp1, 100 ng/ml): 1.05 fold; Fold change of survived neurons compared to neurons grown without growth factors (dopamine neurons; Table 4, exp1, 1000 ng/ml): 1.03 fold; Fold change of survived neurons compared to neurons grown without growth factors (dopamine neurons; Table 4, exp2, 1 ng/ml): 0.94 fold; Fold change of survived neurons compared to neurons grown without growth factors (dopamine neurons; Table 4, exp2, 10 ng/ml): 1.31 fold; Fold change of survived neurons compared to neurons grown without growth factors (dopamine neurons; Table 4, exp2, 100 ng/ml): 1.20 fold; Fold change of survived neurons compared to neurons grown without growth factors (dopamine neurons; Table 4, exp2, 1000 ng/ml): 0.93 fold; Fold change of survived neurons compared to neurons grown without growth factors (dopamine neurons; Table 4, exp3, 1 ng/ml): 1.09 fold; Fold change of survived neurons compared to neurons grown without growth factors (dopamine neurons; Table 4, exp3, 10 ng/ml): 1.30 fold; Fold change of survived neurons compared to neurons grown without growth factors (dopamine neurons; Table 4, exp3, 100 ng/ml): 1.33 fold; Fold change of survived neurons compared to neurons grown without growth factors (dopamine neurons; Table 4, exp3, 1000 ng/ml): 1.20 fold; survived neurons as % compared to neurons grown in the presence of NGF (ER stressed SCG neurons; AVG of exp1-2): 81.78 % NGF; survived neurons as % compared to neurons grown in the presence of NGF (ER stressed SCG neurons; exp1, counted after 3 days): 86.36 % NGF; survived neurons as % compared to neurons grown in the presence of NGF (ER stressed SCG neurons; exp2, counted after 3 days): 77.19 % NGF; Fold change of survived neurons compared to neurons injected with PBS (ER stressed SCG neurons; Table 2, AVG): 2.23 Fold to PBS; Fold change of survived neurons compared to neurons injected with PBS (ER stressed SCG neurons; Table 2, exp1): 2.52 Fold to PBS; Fold change of survived neurons compared to neurons injected with PBS (ER stressed SCG neurons; Table 2, exp2): 1.94 Fold to PBS |
